Data from patent publication US10456407B2, “Combination therapy for treating cancer” (Epizyme, Inc., priority 2015, dated 2019).

Columns and labels:
Assay type in all cases: cell-based
[1] = system: OCI-Ly19 cells; assay: RT2 Glucocorticoid signaling PCR array, OCI-LY19 (Table 4a, printed OCT) cell line; conditions: vs DMSO
Source text: (§1) Expression levels of (A). Sestrin; (B). TNF and (C) GILZ normalized to DMSO controls for each cell line with the indicated single agent or combination.

[2] = system: SU-DHL10 cells; assay: RT2 Glucocorticoid signaling PCR array, SU-DHL10 (SUDHL10) cell line (Table 4d); conditions: SUDHL10, 4 days, vs DMSO
Source text: as §1

[3] = system: OCI-Ly19 cells; assay: RT2 Glucocorticoid signaling PCR array, OCI-LY19 (Table 4a, printed OCT) cell line; conditions: vs DMSO; remark: listed apart in the source

For `CCN(c1cc(-c2ccc(CN3CCOCC3)cc2)cc(C(=O)NCc2c(C)cc(C)[nH]c2=O)c1C)C1CCOCC1` [Compound 44], the “ΔΔCT, AFF1” value ([1]; gene AFF1) was −0.008, the “ΔΔCT, AMPD3” value ([1]; gene AMPD3) was −0.654 and the “ΔΔCT, ANXA4” value ([1]; gene ANXA4) was −0.154. The “ΔΔCT, CEBPA” value ([1]; gene CEBPA) was −2.891, the “ΔΔCT, CREB1” value ([1]; gene CREB1) was 0.006 and the “ΔΔCT, CREB3” value ([1]; gene CREB3) was 0.057. For the same compound, the “ΔΔCT, GHRHR” value ([1]; gene GHRHR) was −4.040, the “ΔΔCT, GOT1” value ([1]; gene GOT1) was −0.084 and the “ΔΔCT, PER1” value ([1]; gene PER1) was 0.674. For the same compound, the “ΔΔCT, RGS2” value ([1]; gene RGS2) was −0.968, the “ΔΔCT, SPSB1” value ([1]; gene SPSB1) was −0.097 and the “ΔΔCT, TBL1XR1” value ([1]; gene TBL1XR1) was −0.043. The “ΔΔCT, TNF” value ([1]; gene TNF) was −0.600, the “ΔΔCT, VLDLR” value ([1]; gene VLDLR) was −0.280 and the “ADARB1 ΔΔCT” value [2] was 0.073. The “AK2 ΔΔCT” value [2] was −0.101, the “ARIDS8 ΔΔCT” value [2] was 0.650 and the “ASPH ΔΔCT” value [2] was 0.296. For the same compound, the “CEBPA ΔΔCT” value [2] was −1.026, the “DDIT4 ΔΔCT” value [2] was 1.444 and the “H6PD ΔΔCT” value [2] was 1.221. For the same compound, the “LOX ΔΔCT” value [2] was 1.164, the “NR3C1 ΔΔCT” value [2] was 0.527 and the “PER2 ΔΔCT” value [2] was 0.441. The “SPHK1 ΔΔCT” value [2] was 0.231, the “STAT5B ΔΔCT” value [2] was 0.027 and the “TNF ΔΔCT” value [2] was −0.204. The “VDR ΔΔCT” value [2] was −0.714, the “ΔΔCT, ADARB1” value ([3]; gene ADARB1) was −0.789 and the “ΔΔCT, AK2” value ([3]; gene AK2) was −0.017. For the same compound, the “ΔΔCT, ANGPTL4” value ([3]; gene ANGPTL4) was −0.305, the “ΔΔCT, ARID68” value ([3]; gene ARID68) was 0.232 and the “ΔΔCT, ASPH” value ([3]; gene ASPH) was −0.584. For the same compound, the “ΔΔCT, ATF4” value ([3]; gene ATF4) was 0.124, the “ΔΔCT, BCL6” value ([3]; gene BCL6) was −1.395 and the “ΔΔCT, CEBPB” value ([3]; gene CEBPB) was 0.390. The “ΔΔCT COL4A2” value ([3]; gene COL4A2) was 0.309, the “ΔΔCT, CREB3L4” value ([3]; gene CREB3L4) was −0.376 and the “ΔΔCT CTGF” value ([3]; gene CTGF) was −0.052. For the same compound, the “ΔΔCT, DDIT4” value ([3]; gene DDIT4) was −0.749, the “ΔΔCT, DUSP1” value ([3]; gene DUSP1) was −0.395 and the “ΔΔCT, EHD3” value ([3]; gene EHD3) was −1.081. For the same compound, the “ΔΔCT, FK8PS” value ([3]; gene FK8PS) was −0.319, the “ΔΔCT, FOSL2” value ([3]; gene FOSL2) was −0.226 and the “ΔΔCT, GDPD1” value ([3]; gene GDPD1) was −0.020. The “ΔΔCT GLUL” value ([3]; gene GLUL) was −0.745, the “ΔΔCT, H6PD” value ([3]; gene H6PD) was −0.915 and the “ΔΔCT, HNRPLL” value ([3]; gene HNRPLL) was −0.346. The “ΔΔCT, IL1RN” value ([3]; gene IL1RN) was −1.244, the “ΔΔCT, KLF9” value ([3]; gene KLF9) was −1.215 and the “ΔΔCT, KLF13” value ([3]; gene KLF13) was −0.452. For the same compound, the “ΔΔCT, LOX” value ([3]; gene LOX) was −0.733, the “ΔΔCT MERTK” value ([3]; gene MERTK) was −0.805 and the “ΔΔCT MTZA” value ([3]; gene MTZA) was −0.118. For the same compound, the “ΔΔCT, NFKBIA” value ([3]; gene NFKBIA) was 0.019, the “ΔΔCT, NR3C1” value ([3]; gene NR3C1) was −0.023 and the “ΔΔCT PDCC7” value ([3]; gene PDCC7) was 0.024. For the same compound, the “ΔΔCT PDGFRB” value ([3]; gene PDGFRB) was 0.934, the “ΔΔCT, PDP1” value ([3]; gene PDP1) was −0.518 and the “ΔΔCT, PIK3R1” value ([3]; gene PIK3R1) was −0.274. The “ΔΔCT, PLEKHF1” value ([3]; gene PLEKHF1) was −0.736, the “ΔΔCT, POU2F1” value ([3]; gene POU2F1) was −0.120 and the “ΔΔCT, POU2F2” value ([3]; gene POU2F2) was 0.031. For the same compound, the “ΔΔCT, RASA3” value ([3]; gene RASA3) was −0.075, the “ΔΔCT, RHOB” value ([3]; gene RHOB) was −1.378 and the “ΔΔCT, SESN1” value ([3]; gene SESN1) was −0.253. For the same compound, the “ΔΔCT, SGK1” value ([3]; gene SGK1) was −0.458, the “ΔΔCT, SLC10A6” value ([3]; gene SLC10A6) was −1.185 and the “ΔΔCT, SLC19A2” value ([3]; gene SLC19A2) was −0.211. The “ΔΔCT, SLC22A5” value ([3]; gene SLC22A5) was −0.367, the “ΔΔCT, SNTA1” value ([3]; gene SNTA1) was −0.908 and the “ΔΔCT, SPHK1” value ([3]; gene SPHK1) was 0.016. The “ΔΔCT, STAT5A” value ([3]; gene STAT5A) was 0.113, the “ΔΔCT, STAT5B” value ([3]; gene STAT5B) was −0.121 and the “ΔΔCT, TNFAIP3” value ([3]; gene TNFAIP3) was 0.317. The “ΔΔCT, TSC22D3” value ([3]; gene TSC22D3) was −0.671, the “ΔΔCT, USP2” value ([3]; gene USP2) was −2.822 and the “ΔΔCT, USPS4” value ([3]; gene USPS4) was 0.165. For the same compound, the “ΔΔCT, VDR” value ([3]; gene VDR) was −0.553, the “ΔΔCT, ZFP36” value ([3]; gene ZFP36) was 0.427 and the “ΔΔCT, ZHX3” value ([3]; gene ZHX3) was −0.394. For the same compound, the “ΔΔCT, ZNF281” value ([3]; gene ZNF281) was 0.531.
